Results on two molecules are retold here after patent US9289446B2, “Myocardial perfusion imaging methods and compositions” (GILEAD SCIENCES, INC., priority 2002, dated 2016).

Assay [1] relates to heart rate (HR) and blood pressure (BP). The assay is described as follows: Example 5: heart rate, blood pressure and plasma catecholamines after i.v. bolus in awake rats (sympathoexcitation). Type of assay: in vivo. The settings on record: in the presence of hexamethonium 10 mg/kg, n=5. Here is the method:
The present study was carried out to determine whether CVT-3146, a selective A2A adenosine receptor agonist, causes sympathoexcitation.
CVT (0.31 μg/kg-50 μg/kg) was given as a rapid i.v. bolus to awake rats and heart rate (HR) and blood pressure (BP) were monitored. CVT-3146 caused an increase in BP and systolic pressure (SP) at lower doses while at higher doses there was a decrease in BP and SP. […] The increase in HR was evident at the lowest dose of CVT at which there was no appreciable decrease in BP. ZM241385 (30 μg/kg, N=5), an A2A receptor antagonist, attenuated the decrease in BP (CVT-3146: 14±3%, ZM: 1±1%) and the increase in HR (CVT: 27±3%, ZM: 18±3%) caused by CVT-3146. Pretreatment with metoprolol (MET, 1 mg/kg, n=5), a beta-blocker, attenuated the increase in HR (CVT: 27±3%, MET: 15±2%), but had no effect on hypotension caused by CVT-3146. In the presence of hexamethonium (HEX, 10 mg/kg, n=5), a ganglionic blocker, the tachycardia was prevented (CVT: 27±3%, HEX: −1±2%), but BP was further reduced (CVT: −11±2%, HEX: −49±5%).

The subject of assay [2] is blood flow in coronary, mesenteric, hind limb and renal vascular beds. The assay is described as follows: Example 8: vasodilator effects in different vascular beds (CBF, MBF, LBF, RBF) in awake dogs. Type of assay: in vivo. The note with it: CVT-3146 2.5 μg/kg, ADO 250 μg/kg. Here is the method:
Example 8 employed a pharmaceutical composition consisting of an aqueous composition of 100 micrograms/mL CVT-3146 in 15% (w:v) propylene glycol and 100 mM phosphate buffer at pH 7 with 0.1% EDTA. The formulation was stored in type I glass vials at 5 mL per vial.
In this study the vasodilator effects of CVT-3146 were compared to those of ADO in different vascular beds in awake dogs. Dogs were chronically instrumented for measurements of the blood flow in coronary (CBF), mesenteric (MBF), hind limb (LBF), and renal (RBF) vascular beds, and hemodynamics.

Turning to `C[N+](C)(C)CCCCCC[N+](C)(C)C` [hexamethonium, reference compound], in assay [1], the “change in BP caused by CVT-3146” value is −49±5% and the “increase in HR (tachycardia) caused by CVT-3146” value is listed as −1±2%.

Take `Nc1ncnc2c1ncn2[C@@H]1O[C@H](CO)[C@@H](O)[C@H]1O` [adenosine, reference compound]: in assay [2], the “duration for CBF above 2-fold of the baseline” value is 16 ± 3 s.
